Test results: patent US6365613B1, “Fungicidal mixtures” (BASF Aktiengesellschaft, priority 1997, dated 2002)

Tested on: Botrytis cinerea
Assay: Activity against Botrytis cinerea on bell peppers (fruit disks, protective spray)
Type: in vivo
Conditions: single active ingredient, green bell pepper disks, 4 days at 18° C.
Method: Activity against Botrytis cinerea on bell peppers
Disks of green bell peppers were sprayed to runoff point with an aqueous preparation of active ingredient which had been prepared from a stock solution comprising 10% of active compound, 63% of cyclohexanone and 27% of emulsifier. 2 hours after the spray coating had dried on, the fruit disks were inoculated with a spore suspension of Botrytis cinerea containing 1.7×10^6 spores per ml of a 2% strength Biomalz solution. The inoculated fruit disks were subsequently incubated in humid chambers at 18° C. for 4 days. The Botrytis infection on the diseased fruit disks was then evaluated visually.
Evaluation was carried out by determining the infected leaf areas in percent. These percentages were converted into efficacies. The efficacy (E) was calculated as follows using Abbot's formula: […]
α corresponds to the fungal infection of the treated plants in % and β corresponds to the fungal infection of the untreated (control) plants in % An efficacy of 0 means that the infection level of the treated plants corresponds to that of the untreated control plants; an efficacy of 100 means that the treated plants were not infected.
The expected efficacies of the mixtures of the active ingredients were determined using Colby's formula [R. S. Colby, weeds 15 (1967), 20-22] and compared with the observed efficacies.
Colby's formula: E=x+y−x·y/100
E expected efficacy, expressed in % of the untreated control, when using the mixture of the active ingredients A and B at the concentrations a and b x efficacy, expressed in % of the untreated control, when using the active ingredient A at the concentration a y efficacy, expressed in % of the untreated control, when using the active ingredient B at the concentration b

`CCCCNC(=O)n1c(NC(=O)OC)nc2ccccc21` [Comp. IIa, methyl 1-(butylcarbamoyl)benzimidazol-2-ylcarbamate, reference compound] was tested, and the “Efficacy in % of the untreated control” value (6.3 ppm in the spray liquor) was 10% and the “Efficacy in % of the untreated control” value (12.5 ppm in the spray liquor) was 20%.
For `CO/N=C(/C(=O)OC)c1ccccc1COc1ccccc1C` [Compound Ia], the “Efficacy in % of the untreated control” value (6.3 ppm in the spray liquor) was 20%, the “Efficacy in % of the untreated control” value (12.5 ppm in the spray liquor) was 30% and the “Efficacy in % of the untreated control” value (25 ppm in the spray liquor) was 30%. The “Efficacy in % of the untreated control” value (50 ppm in the spray liquor) was 50%.
`CO/N=C(/C(=O)OC)c1ccccc1COc1cc(C)ccc1C` [Compound Ic] was tested, and the “Efficacy in % of the untreated control” value (12.5 ppm in the spray liquor) was 50% and the “Efficacy in % of the untreated control” value (25 ppm in the spray liquor) was 80%.
With `COC(=O)NC(=S)Nc1ccccc1NC(=S)NC(=O)OC` [Comp. IIf, dimethyl 4,4′-(o-phenylene)bis(3-thioallophanate), reference compound] the “Efficacy in % of the untreated control” value (12.5 ppm in the spray liquor) was 0%, the “Efficacy in % of the untreated control” value (25 ppm in the spray liquor) was 0% and the “Efficacy in % of the untreated control” value (50 ppm in the spray liquor) was 20%.
